Source: ChEMBL document CHEMBL2346646, “Improving the inhibitory activity of arylidenaminoguanidine compounds at the N-methyl-D-aspartate receptor complex from a recursive computational-experimental structure-activity relationship study” (Bioorg Med Chem, 2013)

target: Glutamate [NMDA] receptor; parameters: species or system Homo sapiens

Point of comparison: `CC(C)(C)c1ccc(/C=N/NC(=N)N)cc1.Cl`, pIC50 4.64. Against it:
- CCCCc1ccc(/C=N/NC(=N)N)cc1.Cl — lower, 4.37
- Cl.N=C(N)N/N=C/c1cccc2ccccc12 — within 0.2 log units, 4.57
- COc1ccccc1/C=N/NC(=N)N.Cl — within 0.2 log units, 4.77
- Cl.N=C(N)N/N=C/c1ccccc1C(F)(F)F — within 0.2 log units, 4.6
- Cl.N=C(N)N/N=C/c1ccc2[nH]ccc2c1 — lower, 4.3
- COc1ccc(/C=N/NC(=N)N)c(OC)c1.Cl — within 0.2 log units, 4.54
- Cl.Cl.N=C(N)N/N=C/c1ccc(/C=N/NC(=N)N)cc1 — within 0.2 log units, 4.49
- Cl.N=C(N)N/N=C/c1cccnc1 — lower, 3.17
- Cl.N#Cc1ccc(/C=N/NC(=N)N)cc1 — lower, 3.64
- Cl.N=C(N)N/N=C/c1ccc(Cl)cc1Cl — higher, 4.99
- Cl.N=C(N)N/N=C/c1ccccc1-c1ccccc1 — higher, 5.07
- CC(C)c1ccc(/C=N/NC(=N)N)cc1.Cl — higher, 5.22
- Cc1ccc(/C=N/NC(=N)N)cc1.Cl — lower, 4.09
- Cc1ccc2cc(/C=N/NC(=N)N)[nH]c2c1.Cl — within 0.2 log units, 4.48
- Cl.N=C(N)N/N=C/c1ccc(O)cc1O — lower, 3.67
- CN(C)c1ccc(/C=N/NC(=N)N)cc1.Cl — higher, 5.1
- COC(=O)c1cccc(/C=N/NC(=N)N)c1.Cl — lower, 4.14
- Cl.N=C(N)N/N=C/c1ccsc1 — lower, 3.74
- COc1ccc(/C=N/NC(=N)N)cc1O.Cl — lower, 4.2
- Cl.N=C(N)N/N=C/c1ccc[nH]1 — lower, 4.02
- Cl.N=C(N)N/N=C/c1ccc(F)cc1 — lower, 4.04
- Cl.N=C(N)N/N=C/c1ccncc1 — lower, 3.27
- Cc1ccc2ccccc2c1/C=N/NC(=N)N.Cl — within 0.2 log units, 4.58
- Cl.Cn1c(/C=N/NC(=N)N)cc2ccccc21 — lower, 4.31
- Cl.N=C(N)N/N=C/c1ccc(-c2ccc([N+](=O)[O-])cc2)o1 — lower, 3.96
- Cl.N#Cc1cccc(/C=N/NC(=N)N)c1 — lower, 4.36
- Cl.N=C(N)N/N=C/c1ccccc1 — lower, 4.14
- Cl.N=C(N)N/N=C/c1ccc(N)cc1 — lower, 3.96
- COc1ccc(/C=N/NC(=N)N)cc1[N+](=O)[O-].Cl — higher, 5.11
- Cl.N=C(N)N/N=C/c1ccc2c(c1)OCO2 — lower, 4.41
- Cl.N=C(N)N/N=C/c1ccc(F)cc1F — lower, 4.26
- Cl.N=C(N)N/N=C/c1ccccc1Cl — higher, 5.15
- Cl.N=C(N)N/N=C/c1ccc(Cl)cc1 — higher, 5.44
- Cl.N=C(N)N/N=C/C=C/c1ccccc1 — lower, 4.23
- COc1ccc(/C=N/NC(=N)N)cc1.Cl — lower, 4.42
- COC(=O)c1ccc(/C=N/NC(=N)N)cc1.Cl — lower, 4.15
- Cl.N=C(N)N/N=C/c1ccc([N+](=O)[O-])cc1 — lower, 4.11
- Cl.N=C(N)N/N=C/c1cc2ccccc2[nH]1 — lower, 4.24
- Cl.N=C(N)N/N=C/c1cccc(N)c1 — lower, 3.65
- Cc1ccc(/C=N/NC(=N)N)c2ccccc12.Cl — higher, 4.94
- Cl.N=C(N)N/N=C/c1ccc2ccccc2c1 — higher, 5.06
- Cl.N=C(N)N/N=C/c1ccccc1F — lower, 4.13
- Cl.N=C(N)N/N=C/c1cccc([N+](=O)[O-])c1 — lower, 3.81
- Cl.N=C(N)N/N=C/c1cccc(Cl)c1 — within 0.2 log units, 4.74
